Results taken from PMC7841342, “Elevated ABCB1 Expression Confers Acquired Resistance to Aurora Kinase Inhibitor GSK-1070916 in Cancer Cells” (Frontiers in Pharmacology, 2021).

Biological target: ABCB1 (Homo sapiens, UniProt P08183)
Assay: biochemical

Chain of ABCB1 (P08183 whole entry): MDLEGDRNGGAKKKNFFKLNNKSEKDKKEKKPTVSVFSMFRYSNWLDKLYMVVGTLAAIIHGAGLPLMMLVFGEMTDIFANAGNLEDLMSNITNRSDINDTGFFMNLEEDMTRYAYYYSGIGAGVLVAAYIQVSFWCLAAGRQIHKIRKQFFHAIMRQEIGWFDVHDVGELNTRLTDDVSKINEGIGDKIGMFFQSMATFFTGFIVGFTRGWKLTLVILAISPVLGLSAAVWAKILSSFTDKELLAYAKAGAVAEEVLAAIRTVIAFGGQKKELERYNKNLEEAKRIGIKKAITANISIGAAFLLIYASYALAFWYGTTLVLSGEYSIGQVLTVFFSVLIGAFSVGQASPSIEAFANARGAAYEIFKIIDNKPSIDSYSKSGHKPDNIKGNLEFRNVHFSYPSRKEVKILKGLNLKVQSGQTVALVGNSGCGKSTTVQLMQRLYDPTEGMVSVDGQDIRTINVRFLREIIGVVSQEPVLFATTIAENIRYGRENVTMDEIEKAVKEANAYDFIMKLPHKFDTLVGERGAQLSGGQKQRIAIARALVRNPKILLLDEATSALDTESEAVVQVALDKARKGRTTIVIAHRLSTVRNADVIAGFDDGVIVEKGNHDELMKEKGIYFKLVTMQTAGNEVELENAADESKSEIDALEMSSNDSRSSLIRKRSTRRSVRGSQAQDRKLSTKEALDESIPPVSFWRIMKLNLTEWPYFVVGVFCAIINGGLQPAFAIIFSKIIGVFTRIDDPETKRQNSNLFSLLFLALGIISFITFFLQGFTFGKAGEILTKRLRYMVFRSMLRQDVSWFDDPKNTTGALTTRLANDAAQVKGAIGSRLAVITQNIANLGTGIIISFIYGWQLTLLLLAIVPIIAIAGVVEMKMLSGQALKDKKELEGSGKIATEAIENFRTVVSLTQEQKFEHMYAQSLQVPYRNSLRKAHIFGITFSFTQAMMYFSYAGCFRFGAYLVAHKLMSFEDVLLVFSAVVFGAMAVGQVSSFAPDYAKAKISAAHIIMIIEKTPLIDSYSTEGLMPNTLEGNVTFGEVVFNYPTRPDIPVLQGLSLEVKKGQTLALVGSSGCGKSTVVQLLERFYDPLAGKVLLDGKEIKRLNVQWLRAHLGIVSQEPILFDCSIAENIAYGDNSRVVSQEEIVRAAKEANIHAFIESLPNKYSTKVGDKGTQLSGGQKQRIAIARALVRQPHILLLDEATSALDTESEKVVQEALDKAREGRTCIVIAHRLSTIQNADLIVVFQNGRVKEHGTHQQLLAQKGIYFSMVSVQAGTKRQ

EC50: 830 nM
SMILES: CCn1cc(-c2ccnc3[nH]c(-c4cccc(CN(C)C)c4)cc23)c(-c2ccc(NC(=O)N(C)C)cc2)n1 [GSK-1070916]
